Source: ChEMBL document CHEMBL2440011, “Screening for inhibitors of the hepatitis C virus internal ribosome entry site RNA” (Bioorg Med Chem, 2013)
Activity calls are given as the source filed them. No cut-off for these calls is given here.

Legend:
[1] = Binding affinity to 5'-terminal cyanine dye-labeled IRES subdomain 2a RNA (unknown origin) at 200 uM by FRET assay in presence of tRNA
[2] = tested on: Internal ribosome entry site (IRES); test: Binding affinity to HCV IRES RNA assessed as inhibition of RNA translation at […] by luciferase reporter gene assay; details: Hepacivirus hominis
[3] = Binding affinity to 5'-terminal cyanine dye-labeled IRES subdomain 2a RNA (unknown origin) at 200 uM by FRET assay
[4] = Binding affinity to cap RNA (unknown origin) assessed as inhibition of cap-dependent firefly luciferase reporter translation
[5] = Binding affinity to 5'-terminal cyanine dye-labeled IRES subdomain 2a RNA (unknown origin) by FRET assay in presence of Mg2+

Row | Activity [1] | inhibition [2] [%] | Activity [3] | inhibition [4] | Activity [5] | SMILES
1 | Active | 30 | Active | inactive | Dose-dependent effect | CN(C)CCCNc1nc2ccc(N)cc2o1
2 | – | – | – | – | Active | CN(C)CC1COc2ccc3nc4n(c3c2C1)CC(CN(C)C)CN4 (stereo not drawn)
3 | – | – | – | – | Dose-dependent effect | CN(C)CCCn1c(N)nc2ccc3c(c21)CC(CN(C)C)CO3 (stereo not drawn)
4 | – | – | Active | – | – | CN(C)CCCNc1nc2cc(N)ccc2o1
